{"source": "patent US20080268024A1", "about": "“Compositions for Oral and/or Topical Administration” (priority 2004, published 2008)", "key": {"[1]": {"test_system": "Lactobacterium", "experiment": "Stimulation of growth: enumeration of lactobacilli in vitro in human fecal homogenate culture", "assay_type": "cell-based, Lactobacillus spp", "details": "1% test substance or mixture, human fecal homogenate in diluted WC broth, incubated up to 24 hours, control 2.8 × 10^5", "procedure": "(§1) The stimulation of growth of micro-organisms has been studied by enumerating bifidobacterium and lactobacilli in vitro in the presence of various test substances:\n(§2) Aliquots (1 mL) of human fecal homogenates (10 g per 100 mL diluent) were added to diluted WC broth (diluted 50:50 with 0.05M phosphate buffer) to which were added the test mixtures and a lactobacillus or bifidobacterium strain. For each of the combinations, parallel tubes were prepared with one set being inoculated with Bifidobacterium spp or Lactobacillus spp. All mixtures were then incubated for up to 24 hours and bacterial numbers determined. The results are presented in Tables 1 and 2 (amount of extract calculated on active content): […]"}, "[2]": {"test_system": "Bifidobacterium", "experiment": "Stimulation of growth: enumeration of Bifidobacterium in vitro in human fecal homogenate culture", "assay_type": "cell-based, Bifidobacterium spp", "details": "1% test substance or mixture, human fecal homogenate in diluted WC broth, incubated up to 24 hours, control 1.0 × 10^6", "procedure": "as §1, §2"}}, "data": [{"compound": "OC[C@H]1O[C@@H](O[C@H]2[C@H](O)[C@@H](O)[C@@H](O[C@]3(CO)O[C@H](CO)[C@@H](O)[C@@H]3O)O[C@@H]2CO)[C@H](O)[C@@H](O)[C@H]1O", "note": "[C2, Lactosucrose]", "values": [{"measurement": "Bacterial numbers CFU/ml", "setting": "[1]", "value": 1.1, "unit": "× × 10^6 CFU/ml"}, {"measurement": "Bacterial numbers CFU/ml", "setting": "[2]", "value": 1.1, "unit": "× × 10^7 CFU/ml"}]}, {"compound": "Lactolin [C3]", "values": [{"measurement": "Bacterial numbers CFU/ml", "setting": "[1]", "value": 1.5, "unit": "× × 10^6 CFU/ml"}, {"measurement": "Bacterial numbers CFU/ml", "setting": "[2]", "value": 1.6, "unit": "× × 10^7 CFU/ml"}]}]}
